Reference: ChEMBL document CHEMBL1201862, “PubChem BioAssay data set” (2004)
The source made the active and inactive calls. How the calls were made is not given here.

Legend:
Assay type in all cases: functional
[1] = biological target: BDNF/NT-3 growth factors receptor (Homo sapiens, UniProt Q16620);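 further: NTRK2 measured as one member of a broad kinome-wide kinase profiling panel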
[2] = biological target: T1, Inhibitor of nuclear factor kappa-B kinase subunit epsilon (Homo sapiens, UniProt Q14164); assay: Navigating the Kinome. Panel member name: IKBKE
T1 sequence (Q14164 whole entry): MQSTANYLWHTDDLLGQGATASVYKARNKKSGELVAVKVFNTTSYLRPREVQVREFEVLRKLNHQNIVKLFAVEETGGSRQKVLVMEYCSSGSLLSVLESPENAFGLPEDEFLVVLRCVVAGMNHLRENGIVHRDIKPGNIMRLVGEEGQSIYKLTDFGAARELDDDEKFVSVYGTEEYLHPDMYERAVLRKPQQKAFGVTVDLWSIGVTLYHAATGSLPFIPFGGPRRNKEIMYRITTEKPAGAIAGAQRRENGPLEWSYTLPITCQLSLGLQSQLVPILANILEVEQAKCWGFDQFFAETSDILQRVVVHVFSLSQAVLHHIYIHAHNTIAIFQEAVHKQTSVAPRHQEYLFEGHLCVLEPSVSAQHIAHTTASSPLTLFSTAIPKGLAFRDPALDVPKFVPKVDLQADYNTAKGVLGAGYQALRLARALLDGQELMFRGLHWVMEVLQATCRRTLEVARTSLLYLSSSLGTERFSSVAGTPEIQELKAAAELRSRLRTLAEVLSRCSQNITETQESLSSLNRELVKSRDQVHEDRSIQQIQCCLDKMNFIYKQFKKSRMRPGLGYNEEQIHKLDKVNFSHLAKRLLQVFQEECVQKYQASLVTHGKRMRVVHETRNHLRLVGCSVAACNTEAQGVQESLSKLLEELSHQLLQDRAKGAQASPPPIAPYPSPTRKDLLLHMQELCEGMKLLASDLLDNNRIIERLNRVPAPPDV

[3] = biological target: Macrophage-stimulating protein receptor (Homo sapiens, UniProt Q04912); assay: Navigating the Kinome. Panel member name: MST1R
Chain of Macrophage-stimulating protein receptor (Q04912 25-304 limits assumed): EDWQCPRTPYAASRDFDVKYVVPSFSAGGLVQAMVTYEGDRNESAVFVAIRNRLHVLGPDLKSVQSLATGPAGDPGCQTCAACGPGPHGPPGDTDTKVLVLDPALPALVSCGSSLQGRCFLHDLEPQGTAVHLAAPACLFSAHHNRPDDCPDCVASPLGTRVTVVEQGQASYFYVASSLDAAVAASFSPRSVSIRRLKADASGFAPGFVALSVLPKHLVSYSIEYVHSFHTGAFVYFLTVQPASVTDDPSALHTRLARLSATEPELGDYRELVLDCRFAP
Chain of Macrophage-stimulating protein receptor (Q04912 310-1400 limits assumed): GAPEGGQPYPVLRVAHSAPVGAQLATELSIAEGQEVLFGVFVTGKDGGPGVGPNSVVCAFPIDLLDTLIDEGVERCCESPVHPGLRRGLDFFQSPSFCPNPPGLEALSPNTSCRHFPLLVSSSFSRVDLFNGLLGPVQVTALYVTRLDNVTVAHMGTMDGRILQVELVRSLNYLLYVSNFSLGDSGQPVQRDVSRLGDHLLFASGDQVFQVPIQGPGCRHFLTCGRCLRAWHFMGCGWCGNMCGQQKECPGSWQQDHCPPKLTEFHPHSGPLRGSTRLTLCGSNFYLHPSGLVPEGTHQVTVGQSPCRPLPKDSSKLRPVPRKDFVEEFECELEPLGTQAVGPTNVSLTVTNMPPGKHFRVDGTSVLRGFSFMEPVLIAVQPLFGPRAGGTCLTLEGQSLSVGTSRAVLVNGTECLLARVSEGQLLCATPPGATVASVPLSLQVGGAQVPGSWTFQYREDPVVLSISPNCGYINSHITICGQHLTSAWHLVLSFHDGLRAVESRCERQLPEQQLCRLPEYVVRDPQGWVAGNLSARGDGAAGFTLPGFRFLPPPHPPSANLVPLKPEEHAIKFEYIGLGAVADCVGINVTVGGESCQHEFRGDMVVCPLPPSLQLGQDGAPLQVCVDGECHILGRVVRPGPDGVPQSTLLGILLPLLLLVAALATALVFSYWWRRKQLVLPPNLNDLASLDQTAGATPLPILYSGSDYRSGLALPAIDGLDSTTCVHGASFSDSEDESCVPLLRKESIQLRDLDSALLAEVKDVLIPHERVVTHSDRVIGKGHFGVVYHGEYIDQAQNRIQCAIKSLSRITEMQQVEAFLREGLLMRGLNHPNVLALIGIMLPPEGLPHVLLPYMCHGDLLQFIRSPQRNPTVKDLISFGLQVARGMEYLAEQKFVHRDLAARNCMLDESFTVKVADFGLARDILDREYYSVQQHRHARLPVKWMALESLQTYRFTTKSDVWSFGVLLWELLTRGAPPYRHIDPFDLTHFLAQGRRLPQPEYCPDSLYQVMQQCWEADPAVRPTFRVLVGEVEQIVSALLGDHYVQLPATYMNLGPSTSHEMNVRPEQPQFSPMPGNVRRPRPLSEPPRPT

[4] = biological target: 5'-AMP-activated protein kinase catalytic subunit alpha-1 (Homo sapiens, UniProt Q13131)
Chain of 5'-AMP-activated protein kinase catalytic subunit alpha-1 (Q13131 whole entry): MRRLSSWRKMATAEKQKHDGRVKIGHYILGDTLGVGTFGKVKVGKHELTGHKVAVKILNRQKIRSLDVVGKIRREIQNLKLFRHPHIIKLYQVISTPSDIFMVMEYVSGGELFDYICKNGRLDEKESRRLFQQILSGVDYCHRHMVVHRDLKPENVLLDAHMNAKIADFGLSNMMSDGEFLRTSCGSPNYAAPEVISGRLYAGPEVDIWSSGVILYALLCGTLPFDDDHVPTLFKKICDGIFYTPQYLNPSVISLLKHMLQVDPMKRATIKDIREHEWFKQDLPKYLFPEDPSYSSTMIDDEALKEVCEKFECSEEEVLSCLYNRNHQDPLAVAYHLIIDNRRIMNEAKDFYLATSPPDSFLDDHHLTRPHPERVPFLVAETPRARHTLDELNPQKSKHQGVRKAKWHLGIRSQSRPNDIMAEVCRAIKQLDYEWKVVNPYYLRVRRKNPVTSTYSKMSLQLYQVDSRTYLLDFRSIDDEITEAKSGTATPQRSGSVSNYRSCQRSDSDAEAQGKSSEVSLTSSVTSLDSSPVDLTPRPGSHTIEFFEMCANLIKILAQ

Activin receptor type-1 = biological target: T2, Activin receptor type-1 (Homo sapiens, UniProt Q04771); assay: Navigating the Kinome. Panel member name: ACVR1
T2 sequence (Q04771 whole entry): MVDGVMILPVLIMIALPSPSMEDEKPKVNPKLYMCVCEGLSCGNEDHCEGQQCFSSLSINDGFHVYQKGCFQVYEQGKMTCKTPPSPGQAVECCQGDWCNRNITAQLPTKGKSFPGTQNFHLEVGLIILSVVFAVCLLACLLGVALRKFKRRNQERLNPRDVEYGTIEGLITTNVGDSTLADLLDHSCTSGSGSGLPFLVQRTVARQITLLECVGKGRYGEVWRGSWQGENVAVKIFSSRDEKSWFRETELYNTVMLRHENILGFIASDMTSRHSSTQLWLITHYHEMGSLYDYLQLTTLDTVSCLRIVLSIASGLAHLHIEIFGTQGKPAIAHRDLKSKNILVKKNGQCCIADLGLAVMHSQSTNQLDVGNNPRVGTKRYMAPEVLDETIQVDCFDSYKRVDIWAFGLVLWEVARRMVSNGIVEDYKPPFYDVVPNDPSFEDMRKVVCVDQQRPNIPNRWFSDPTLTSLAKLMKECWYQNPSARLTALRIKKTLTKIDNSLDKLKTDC

[5] = biological target: T3, Serine/threonine-protein kinase D3 (Homo sapiens, UniProt O94806);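 further: determined within a kinase panel screen, with PRKCN as the panel member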
T3 sequence (O94806 whole entry): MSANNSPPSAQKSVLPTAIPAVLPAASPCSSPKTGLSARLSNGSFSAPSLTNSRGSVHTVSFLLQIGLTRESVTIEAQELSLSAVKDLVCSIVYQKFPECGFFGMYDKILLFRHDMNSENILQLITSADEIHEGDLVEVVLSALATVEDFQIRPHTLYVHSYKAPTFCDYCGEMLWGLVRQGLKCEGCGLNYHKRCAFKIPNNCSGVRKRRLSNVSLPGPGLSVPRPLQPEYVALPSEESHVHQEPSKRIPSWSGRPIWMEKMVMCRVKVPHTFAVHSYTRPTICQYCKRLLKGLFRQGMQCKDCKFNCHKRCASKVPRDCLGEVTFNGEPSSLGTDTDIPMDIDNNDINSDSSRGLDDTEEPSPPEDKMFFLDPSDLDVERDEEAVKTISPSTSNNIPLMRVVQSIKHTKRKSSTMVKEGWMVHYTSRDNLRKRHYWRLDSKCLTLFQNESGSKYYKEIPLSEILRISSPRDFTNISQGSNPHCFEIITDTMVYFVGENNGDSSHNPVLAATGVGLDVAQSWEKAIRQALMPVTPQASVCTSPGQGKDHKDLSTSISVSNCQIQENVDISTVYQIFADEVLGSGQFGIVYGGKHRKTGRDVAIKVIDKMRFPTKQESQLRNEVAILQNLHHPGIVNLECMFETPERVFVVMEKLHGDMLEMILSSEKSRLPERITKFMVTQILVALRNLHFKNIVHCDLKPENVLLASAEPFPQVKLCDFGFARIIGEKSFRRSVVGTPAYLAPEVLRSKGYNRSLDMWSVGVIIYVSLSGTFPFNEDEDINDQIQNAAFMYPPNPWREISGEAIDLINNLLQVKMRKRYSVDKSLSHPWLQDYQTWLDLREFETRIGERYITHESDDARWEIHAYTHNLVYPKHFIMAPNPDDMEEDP

[6] = biological target: Platelet-derived growth factor receptor alpha (Homo sapiens, UniProt P16234); assay: Navigating the Kinome. Panel member name: PDGFRA
[7] = biological target: Dual specificity tyrosine-phosphorylation-regulated kinase 1B (Homo sapiens, UniProt Q9Y463); assay: Navigating the Kinome. Panel member name: DYRK1B
[8] = biological target: T4, cAMP-dependent protein kinase catalytic subunit PRKX (Homo sapiens, UniProt P51817)
T4 sequence (P51817 whole entry): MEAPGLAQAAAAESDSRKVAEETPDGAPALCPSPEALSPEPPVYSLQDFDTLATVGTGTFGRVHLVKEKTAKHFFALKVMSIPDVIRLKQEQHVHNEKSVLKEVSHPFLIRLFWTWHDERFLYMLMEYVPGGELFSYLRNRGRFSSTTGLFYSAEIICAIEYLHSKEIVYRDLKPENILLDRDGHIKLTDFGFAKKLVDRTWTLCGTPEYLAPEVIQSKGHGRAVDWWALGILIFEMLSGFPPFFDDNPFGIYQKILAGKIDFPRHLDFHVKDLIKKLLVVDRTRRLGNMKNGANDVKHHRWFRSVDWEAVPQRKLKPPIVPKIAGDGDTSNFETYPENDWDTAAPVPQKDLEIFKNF

[9] = biological target: Protein kinase C theta type (Homo sapiens, UniProt Q04759); assay: Navigating the Kinome. Panel member name: PRKCQ
Chain of Protein kinase C theta type (Q04759 whole entry): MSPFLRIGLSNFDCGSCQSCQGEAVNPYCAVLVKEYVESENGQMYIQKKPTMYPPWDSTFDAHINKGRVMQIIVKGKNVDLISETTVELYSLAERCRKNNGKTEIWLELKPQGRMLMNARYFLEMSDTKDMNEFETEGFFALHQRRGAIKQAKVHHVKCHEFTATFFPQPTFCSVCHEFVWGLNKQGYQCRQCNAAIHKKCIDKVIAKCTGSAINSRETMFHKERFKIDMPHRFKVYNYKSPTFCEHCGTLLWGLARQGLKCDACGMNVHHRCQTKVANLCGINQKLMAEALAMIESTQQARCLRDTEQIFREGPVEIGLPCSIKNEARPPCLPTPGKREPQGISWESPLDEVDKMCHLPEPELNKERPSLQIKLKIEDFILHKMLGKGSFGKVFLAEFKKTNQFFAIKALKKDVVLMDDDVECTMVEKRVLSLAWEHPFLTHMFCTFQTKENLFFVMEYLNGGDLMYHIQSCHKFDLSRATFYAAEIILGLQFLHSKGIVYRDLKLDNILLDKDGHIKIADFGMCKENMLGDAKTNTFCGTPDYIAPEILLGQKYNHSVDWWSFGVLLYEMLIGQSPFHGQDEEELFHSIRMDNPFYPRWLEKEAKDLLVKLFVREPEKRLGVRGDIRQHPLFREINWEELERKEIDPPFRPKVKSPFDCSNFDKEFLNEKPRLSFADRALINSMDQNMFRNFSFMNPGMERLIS

[10] = biological target: Dual specificity mitogen-activated protein kinase kinase 1 (Homo sapiens, UniProt Q02750); assay: Navigating the Kinome. Panel member name: MAP2K1
[11] = biological target: Vascular endothelial growth factor receptor 2 (Homo sapiens, UniProt P35968)
Chain of Vascular endothelial growth factor receptor 2 (P35968 whole entry): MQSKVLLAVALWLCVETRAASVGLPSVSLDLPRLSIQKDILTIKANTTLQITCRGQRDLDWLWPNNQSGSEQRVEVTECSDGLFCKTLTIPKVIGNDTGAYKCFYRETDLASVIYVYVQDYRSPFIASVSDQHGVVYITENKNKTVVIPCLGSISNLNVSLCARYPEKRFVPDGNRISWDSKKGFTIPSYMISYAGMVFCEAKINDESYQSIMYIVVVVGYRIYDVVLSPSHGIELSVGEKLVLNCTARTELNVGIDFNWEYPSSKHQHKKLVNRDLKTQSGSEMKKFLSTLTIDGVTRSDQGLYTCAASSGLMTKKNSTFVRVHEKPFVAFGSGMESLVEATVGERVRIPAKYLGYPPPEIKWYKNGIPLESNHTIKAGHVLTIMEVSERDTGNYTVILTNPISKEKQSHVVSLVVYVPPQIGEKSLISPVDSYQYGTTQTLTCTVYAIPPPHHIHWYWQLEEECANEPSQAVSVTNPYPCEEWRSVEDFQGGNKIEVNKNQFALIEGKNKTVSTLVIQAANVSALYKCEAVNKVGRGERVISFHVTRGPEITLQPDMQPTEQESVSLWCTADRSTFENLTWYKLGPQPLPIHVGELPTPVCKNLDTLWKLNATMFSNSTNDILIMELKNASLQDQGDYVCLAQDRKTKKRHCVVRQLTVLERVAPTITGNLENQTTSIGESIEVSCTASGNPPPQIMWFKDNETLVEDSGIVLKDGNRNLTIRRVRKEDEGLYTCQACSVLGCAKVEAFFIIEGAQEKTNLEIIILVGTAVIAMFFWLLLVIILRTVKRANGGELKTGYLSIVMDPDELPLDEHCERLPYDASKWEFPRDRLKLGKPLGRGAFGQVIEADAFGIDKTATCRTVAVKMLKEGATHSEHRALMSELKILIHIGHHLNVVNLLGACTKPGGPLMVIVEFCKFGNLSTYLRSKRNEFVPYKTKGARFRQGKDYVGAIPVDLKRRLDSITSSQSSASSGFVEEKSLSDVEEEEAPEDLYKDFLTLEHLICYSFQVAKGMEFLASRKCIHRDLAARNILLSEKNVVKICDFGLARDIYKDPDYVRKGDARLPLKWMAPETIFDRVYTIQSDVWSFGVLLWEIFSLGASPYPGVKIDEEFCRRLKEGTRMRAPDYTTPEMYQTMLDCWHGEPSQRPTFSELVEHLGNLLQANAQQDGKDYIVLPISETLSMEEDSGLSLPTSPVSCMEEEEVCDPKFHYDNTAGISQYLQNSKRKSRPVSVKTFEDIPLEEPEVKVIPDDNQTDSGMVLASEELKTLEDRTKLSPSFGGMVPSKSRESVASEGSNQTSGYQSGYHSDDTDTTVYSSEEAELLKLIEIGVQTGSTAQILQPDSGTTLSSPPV

Chain of BDNF/NT-3 growth factors receptor (Q16620 whole entry): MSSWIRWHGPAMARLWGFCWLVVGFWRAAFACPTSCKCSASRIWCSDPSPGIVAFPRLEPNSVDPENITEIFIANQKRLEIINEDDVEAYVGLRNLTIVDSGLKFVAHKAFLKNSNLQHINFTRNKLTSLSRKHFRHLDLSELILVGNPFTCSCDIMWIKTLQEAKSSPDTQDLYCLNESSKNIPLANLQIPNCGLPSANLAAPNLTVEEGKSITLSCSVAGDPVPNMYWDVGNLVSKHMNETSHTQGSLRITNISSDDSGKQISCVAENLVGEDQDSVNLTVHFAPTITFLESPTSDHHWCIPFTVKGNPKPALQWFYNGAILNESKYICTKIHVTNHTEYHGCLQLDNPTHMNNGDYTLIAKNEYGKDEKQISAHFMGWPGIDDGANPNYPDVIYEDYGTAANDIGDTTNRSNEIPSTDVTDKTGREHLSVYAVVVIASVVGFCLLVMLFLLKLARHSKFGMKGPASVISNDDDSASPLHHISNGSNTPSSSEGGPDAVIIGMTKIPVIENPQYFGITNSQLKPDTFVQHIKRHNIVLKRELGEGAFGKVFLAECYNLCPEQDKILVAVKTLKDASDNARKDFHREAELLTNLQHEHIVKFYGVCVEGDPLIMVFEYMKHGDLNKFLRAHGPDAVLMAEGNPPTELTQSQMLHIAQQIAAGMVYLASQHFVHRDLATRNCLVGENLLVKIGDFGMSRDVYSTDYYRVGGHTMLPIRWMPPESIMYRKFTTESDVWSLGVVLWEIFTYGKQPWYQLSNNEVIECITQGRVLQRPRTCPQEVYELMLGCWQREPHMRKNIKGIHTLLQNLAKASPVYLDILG

COc1cccc(C(C)NC(=O)c2sc(-c3ccncc3)nc2C)c1 (stereo unspecified)
Ki [1]: > 3.98 µM (inactive) | Ki [2]: > 3.16 µM (inactive) | Ki [3]: > 3.98 µM (inactive) | Ki [4]: > 3.16 µM (inactive) | Ki (Activin receptor type-1): > 3.98 µM (inactive) | Ki [5]: > 3.98 µM (inactive) | Ki [6]: > 2.51 µM (inactive) | Ki [7]: > 2.51 µM (inactive) | Ki [8]: > 3.16 µM (inactive) | Ki [9]: > 2.51 µM (inactive) | Ki [10]: > 3.16 µM (inactive) | Ki [11]: > 2.51 µM (inactive)

CCCCC(=O)Nc1cc(-c2c[nH]c3ncccc23)cc(Cl)n1
Ki [1]: > 3.98 µM (inactive) | Ki [2]: > 3.16 µM (inactive) | Ki [3]: > 3.98 µM (inactive) | Ki [4]: > 3.16 µM (inactive) | Ki (Activin receptor type-1): > 3.98 µM (inactive) | Ki [5]: > 3.98 µM (inactive) | Ki [6]: > 2.51 µM (inactive) | Ki [7]: 0.0398 µM (active) | Ki [8]: > 3.16 µM (inactive) | Ki [9]: > 2.51 µM (inactive) | Ki [10]: > 3.16 µM (inactive) | Ki [11]: > 2.51 µM (inactive)

Oc1ccc(-c2nc(-c3ccncc3)c(-c3ccc(F)cc3)[nH]2)cc1 [SB-202190]
Ki [1]: 0.794 µM (active) | Ki [2]: > 3.16 µM (inactive) | Ki [3]: > 3.98 µM (inactive) | Ki [4]: > 3.16 µM (inactive) | Ki (Activin receptor type-1): > 3.16 µM (inactive) | Ki [5]: 2.51 µM (active) | Ki [6]: > 3.16 µM (inactive) | Ki [7]: > 2.51 µM (inactive) | Ki [8]: > 3.16 µM (inactive) | Ki [9]: > 2.51 µM (inactive) | Ki [10]: > 3.16 µM (inactive) | Ki [11]: > 2 µM (inactive)
